Laboratory results reported in patent US20210311024A1, “NON-CLINICAL TEST METHOD CHARACTERIZED BY QUANTITATIVE EVALUATION OF EXPERIMENTAL ANIMAL SPECIMEN” (Konica Minolta, Inc., priority 2016, published 2021).

What was measured:
Format in all cases: in vivo
[1] = test system: PDX mice each transplanted with the breast cancer tissue of one of six patients (A to F); assay: Lapatinib drug efficacy (tumor volume) in breast cancer PDX mice, Example 1; conditions: 100 mg/kg i.v. twice a day, 42 times; for Tumor size (size at the start of administration is taken as 100%): 21 days after first administration
Method: To each of these PDX mice, 100 mg/kg of lapatinib (Trade name: Tykerb) was administered intravenously twice a day, for a total of 42 times. The measurement of the tumor volume was carried out before the administration and 21 days after the first administration. At the same time, a tissue section was collected from each mouse using a frozen needle, at each time point. The collected tissue sections were subjected to a formalin fixation treatment and a paraffin-embedding treatment, and then sliced to prepare sample slides, according to conventional methods. The thus prepared sample slides were used for the quantification of the expression level of HER2 as the target protein.

[2] = test system: PDX mice each transplanted with the breast cancer tissue of one of six patients (A to F); assay: Lapatinib drug efficacy in PDX mice selected for low CD140a score, Example 4; conditions: three mice per group selected for low CD140a score; 100 mg/kg i.v. twice a day, 42 times; 21 days after first administration
Method: PDX mice each transplanted with the breast cancer tissue (volume: about 200 mm^3) of one of six patients (A to F), which were the same as those used in Example 1, were purchased, five mice for each of the patients. These PDX mice were reared, and the size of the tumor in each mouse was measured every 3 or 4 days. When the tumor volume reached 500 mm^3, tumor tissue was collected from each mouse using a scalpel.
The observation and image capture of the immunostained images and the stained images for morphological observation were carried out in the same manner as in Example 1, to measure the PID score or the DAB score of CD140a. […]
To each of the thus selected three PDX mice, in each group, 100 mg/kg of lapatinib (trade name: Tykerb) was administered intravenously twice a day, for a total of 42 times, in the same manner as in Example 1, and the tumor volume was measured before the first administration, and 21 days after the first administration. […] The collected tissue sections were used for the quantification of the expression level of HER2 protein as the target protein, in the same manner as in Example 1.

[3] = test system: hemato-lymphoid humanized model mice transplanted with tumor tissue of lung cancer patients; assay: Nivolumab drug efficacy in hemato-lymphoid humanized model mice transplanted with lung cancer tissue, Example 5; conditions: 100 mg/kg i.v. twice a day, 42 times; 21 days after first administration
Text: Hemato-lymphoid humanized mice, produced by transplanting human hematopoietic stem cells into mice with acquired immune deficiency, were transplanted with tumor tissue, to prepare hemato-lymphoid humanized model mice, which are one type of patient-derived tumor-transplanted mice. Tumor tissues collected from six lung cancer patients were purchased from SofiaBio, and the thus produced hemato-lymphoid humanized mice were each subcutaneously transplanted with the tumor tissue, having a size of 2 mm square, of one of the patients (five mice transplanted with the tumor tissue of one patient were produced for each of the patients). To each of the model mice whose tumor tissue had grown to the size of about 300 mm^3 one month after the transplantation, 100 mg/kg of an anti-human PD-1 monoclonal antibody preparation, nivolumab (trade name: Opdivo) was administered intravenously twice a day, for a total of 42 times. In the same manner as in Example 1, the tumor volume was measured before the first administration and 21 days after the first administration. At the same time, a tissue section was collected from each of the mice, and sample slides were prepared in the same manner as in Example 1. […]

| Molecule | Tumor size (size at the start of administration is taken as 100%) ([1]; Sample A (PID score 10, DAB score — before administration)) [%] | Tumor size (size at the start of administration is taken as 100%) ([1]; Sample B (PID score 30, DAB score 1+ before administration)) [%] | Tumor size (size at the start of administration is taken as 100%) ([1]; Sample C (PID score 100, DAB score 2+ before administration)) [%] | Tumor size (size at the start of administration is taken as 100%) ([1]; Sample D (PID score 200, DAB score 3+ before administration)) [%] | Tumor size (size at the start of administration is taken as 100%) ([1]; Sample E (PID score 400, DAB score 3+ before administration)) [%] | Tumor size (size at the start of administration is taken as 100%) ([1]; Sample F (PID score 800, DAB score 3+ before administration)) [%] | drug efficacy (effect of reducing the tumor size) in relation to PID score ([1]; among the PDX mice having the same DAB score of 3+) | drug efficacy (effect of reducing the tumor size) in relation to PID score of HER2 protein [2] | drug efficacy (effect of reducing the tumor size) in relation to PID score of PD-L1 protein [3] |
| --- | --- | --- | --- | --- | --- | --- | --- | --- | --- |
| CS(=O)(=O)CCNCc1ccc(-c2ccc3ncnc(Nc4ccc(OCc5cccc(F)c5)c(Cl)c4)c3c2)o1 [Lapatinib, lapatinib] | 180 | 120 | 80 | 70 | 60 | 10 | increased drug efficacy (effect of reducing the tumor size) of lapatinib tend to be observed in a PDX mouse having a higher PID score | increased drug efficacy (effect of reducing the tumor size) of lapatinib tend to be observed in a PDX mouse having a higher PID score of HER2 protein | – |
| nivolumab | – | – | – | – | – | – | – | – | increased drug efficacy (effect of reducing the tumor size) of nivolumab tend to be observed in a PDX mouse having a higher PID score of PD-L1 protein |
